Data as given in ChEMBL document CHEMBL3885861, “Open TG-GATES”.

Species on record: Rattus norvegicus
Test: Open TG-GATES - Regimen: Single
Type: toxicity, organism-based, Sprague-Dawley
Design: regimen Single, gender Male, age 6 weeks
Conditions: in vivo, po, 100 mg/kg, route gavage, dose level Low; for APTT / Bas / Eos / Fbg / Hb / Ht / Lym / MCH / MCHC / MCV / Mono / Neu / PT / Plat / RBC / Ret / WBC: tissue Blood; for KIDNEY_L / KIDNEY_R / KIDNEY_TOTAL: tissue Kidney; for LIVER: tissue Liver; for A/G / ALP / ALT / AST / BUN / CRE / Ca / Cl / DBIL / GLC / IP / K / LDH / Na / PL / RALB / TBIL / TC / TG / TP / gamma-GTP: tissue Plasma

CN/C(=N/CCSCc1nc[nH]c1C)NC#N [CIMETIDINE]
TERMINAL_BW (3 h): 214.5 g | APTT (3 h): 18.3 s | Bas (3 h): 0% | Eos (3 h): 1% | Fbg (3 h): 220.4 mg/dL | Hb (3 h): 13.1 g/dL | Ht (3 h): 38.2% | Lym (3 h): 78.6% | MCH (3 h): 21.9 pg | MCHC (3 h): 34.2% | MCV (3 h): 64.1 fL | Mono (3 h): 2.8% | Neu (3 h): 16.8% | PT (3 h): 12.8 s | Plat (3 h): 127.8 x10_4/uL | RBC (3 h): 596.2 x10_4/ul | Ret (3 h): 8.3% | WBC (3 h): 109.3 x10_2/uL | KIDNEY_L (3 h): 1 g | KIDNEY_R (3 h): 1 g | KIDNEY_TOTAL (3 h): 2 g | LIVER (3 h): 10 g | A/G (3 h): 1.7 | ALP (3 h): 1167.2 IU/L | ALT (3 h): 39.4 IU/L | AST (3 h): 70.2 IU/L | BUN (3 h): 9.6 mg/dL | CRE (3 h): 0.4 mg/dL | Ca (3 h): 10.6 mg/dL | Cl (3 h): 102.6 meq/L | DBIL (3 h): 0.072 mg/dL | GLC (3 h): 195 mg/dL | IP (3 h): 9.5 mg/dL | K (3 h): 4 meq/L | LDH (3 h): 154.4 IU/L | Na (3 h): 140.6 meq/L | PL (3 h): 140.6 mg/dL | RALB (3 h): 3.4 g/dL | TBIL (3 h): 0.1 mg/dL | TC (3 h): 75.2 mg/dL | TG (3 h): 47.4 mg/dL | TP (3 h): 5.5 g/dL | gamma-GTP (3 h): 0.6 IU/L | TERMINAL_BW (6 h): 209.9 g | APTT (6 h): 18.8 s | Bas (6 h): 0% | Eos (6 h): 1% | Fbg (6 h): 216.8 mg/dL | Hb (6 h): 13.2 g/dL | Ht (6 h): 38% | Lym (6 h): 77.6% | MCH (6 h): 22.2 pg | MCHC (6 h): 34.8% | MCV (6 h): 63.7 fL | Mono (6 h): 2.8% | Neu (6 h): 17.6% | PT (6 h): 13.1 s | Plat (6 h): 135.7 x10_4/uL | RBC (6 h): 596.8 x10_4/ul | Ret (6 h): 7.8% | WBC (6 h): 98.4 x10_2/uL | KIDNEY_L (6 h): 1 g | KIDNEY_R (6 h): 1 g | KIDNEY_TOTAL (6 h): 1.9 g | LIVER (6 h): 9.7 g | A/G (6 h): 1.6 | ALP (6 h): 885 IU/L | ALT (6 h): 34.4 IU/L | AST (6 h): 64 IU/L | BUN (6 h): 9.6 mg/dL | CRE (6 h): 0.4 mg/dL | Ca (6 h): 10.6 mg/dL | Cl (6 h): 102.4 meq/L | DBIL (6 h): 0.07 mg/dL | GLC (6 h): 194.6 mg/dL | IP (6 h): 9.6 mg/dL | K (6 h): 3.7 meq/L | LDH (6 h): 180 IU/L | Na (6 h): 141.4 meq/L | PL (6 h): 138 mg/dL | RALB (6 h): 3.4 g/dL | TBIL (6 h): 0.1 mg/dL | TC (6 h): 70.6 mg/dL | TG (6 h): 61.4 mg/dL | TP (6 h): 5.5 g/dL | gamma-GTP (6 h): 1.8 IU/L | TERMINAL_BW (9 h): 209.3 g | APTT (9 h): 20.3 s | Bas (9 h): 0% | Eos (9 h): 1% | Fbg (9 h): 246 mg/dL | Hb (9 h): 12.9 g/dL | Ht (9 h): 36.9% | Lym (9 h): 74% | MCH (9 h): 22.4 pg | MCHC (9 h): 34.9% | MCV (9 h): 64.3 fL | Mono (9 h): 2.4% | Neu (9 h): 21% | PT (9 h): 13.7 s | Plat (9 h): 128.2 x10_4/uL | RBC (9 h): 575.2 x10_4/ul | Ret (9 h): 8.7% | WBC (9 h): 88 x10_2/uL | KIDNEY_L (9 h): 1 g | KIDNEY_R (9 h): 1 g | KIDNEY_TOTAL (9 h): 1.9 g | LIVER (9 h): 9.2 g | A/G (9 h): 1.6 | ALP (9 h): 890.8 IU/L | ALT (9 h): 31.4 IU/L | AST (9 h): 62 IU/L | BUN (9 h): 11.6 mg/dL | CRE (9 h): 0.3 mg/dL | Ca (9 h): 10.5 mg/dL | Cl (9 h): 103.4 meq/L | DBIL (9 h): 0.076 mg/dL | GLC (9 h): 194.4 mg/dL | IP (9 h): 10 mg/dL | K (9 h): 3.9 meq/L | LDH (9 h): 137.4 IU/L | Na (9 h): 141.4 meq/L | PL (9 h): 135 mg/dL | RALB (9 h): 3.4 g/dL | TBIL (9 h): 0.1 mg/dL | TC (9 h): 74.4 mg/dL | TG (9 h): 42.8 mg/dL | TP (9 h): 5.5 g/dL | gamma-GTP (9 h): 1.2 IU/L | TERMINAL_BW (24 h): 225.6 g | APTT (24 h): 19.4 s | Bas (24 h): 0% | Eos (24 h): 1% | Fbg (24 h): 227.2 mg/dL | Hb (24 h): 12.7 g/dL | Ht (24 h): 37.8% | Lym (24 h): 79.8% | MCH (24 h): 21.5 pg | MCHC (24 h): 33.7% | MCV (24 h): 63.7 fL | Mono (24 h): 3.2% | Neu (24 h): 14.8% | PT (24 h): 12.8 s | Plat (24 h): 135 x10_4/uL | RBC (24 h): 593.4 x10_4/ul | Ret (24 h): 7.2% | WBC (24 h): 109.1 x10_2/uL | KIDNEY_L (24 h): 1 g | KIDNEY_R (24 h): 1.1 g | KIDNEY_TOTAL (24 h): 2.1 g | LIVER (24 h): 11.2 g | A/G (24 h): 1.7 | ALP (24 h): 1060 IU/L | ALT (24 h): 35.2 IU/L | AST (24 h): 64.4 IU/L | BUN (24 h): 15.8 mg/dL | CRE (24 h): 0.4 mg/dL | Ca (24 h): 10.8 mg/dL | Cl (24 h): 102.2 meq/L | DBIL (24 h): 0.1 mg/dL | GLC (24 h): 199.4 mg/dL | IP (24 h): 6.9 mg/dL | K (24 h): 4.2 meq/L | LDH (24 h): 155.6 IU/L | Na (24 h): 140 meq/L | PL (24 h): 143.8 mg/dL | RALB (24 h): 3.4 g/dL | TBIL (24 h): 0.2 mg/dL | TC (24 h): 73.2 mg/dL | TG (24 h): 98.8 mg/dL | TP (24 h): 5.5 g/dL | gamma-GTP (24 h): 1.6 IU/L
